Measurements published in patent US9242993B2, “Morpholino substituted bicyclic pyrimidine urea or carbamate derivatives as mTOR inhibitors” (CELLZOME LIMITED, priority 2011, dated 2016).

Assays:
[1] = target: DNA-dependent protein kinase (DNA-PK) (Homo sapiens, UniProt P78527); test: biochemical
mTOR = mTOR (Homo sapiens, UniProt P42345); test: biochemical
[2] = tested on: S6RP serine-240/244 phosphorylation; test: In vitro phospho-S6 cellular assay; type: cell-based; details: Homo sapiens; HEK293T/17 cells, 2 hours; read-out: pS6 inhibition value (IC50), activity level
Description: Activation of mTOR signaling results in phosphorylation of several downstream targets. In cells, mTOR exists in two different protein complexes. The mTOR Complex-1 (mTORC1) phosphorylates and activates S6 Kinase 1 (S6K1) and S6 Kinase 2 (S6K2) (also known as p70S6K) which then phosphorylate S6 Ribosomal Protein (S6RP) (also known as RPS6)3. S6RP is phosphorylated on serine 235, serine 236, serine 240 and serine 244 by both pS6K1 and pS6K2. The mTOR Complex-2 (mTORC2) phosphorylates AKT on serine 473 which activates the AKT signaling pathway.
The assay measures a test compound's inhibition of S6RP serine-240/244 phosphorylation and inhibition of Akt serine-473 phosphorylation in human embryonic kidney derived HEK293T/17 cells (ATCC CRL-11268).
The HEK293T/17 cell line is maintained in DMEM media (Invitrogen catalogue number 41965-039) supplemented with 10% FCS at 37° C. in a 5% CO2 humidified incubator.
Cells are seeded in 96-well plates at 40,000 cells/well (pS6RP S240/244 assay) or 80,000 cells/well (pAkt S473 assay) in 90 μl growth media (DMEM, 2% FCS). Plates are incubated for 1 hour in a humidified incubator to allow the cells to adhere. Cells are treated with 8 concentrations of test compounds or DMSO alone for controls (final DMSO concentration 0.1%) and incubated at 37° C. for 2 hours. Then 20 μl of 5× concentrated lysis buffer (750 mM NaCl, 100 mM Tris pH7.4, 5 mM ADTA, 5 mM EGTA, 5% Triton X-100) is added, plates are sealed and incubated for 15 minutes at 4° C. with gentle shaking. After cell lysis, 25 μl cell lysate is transferred to a MesoScale plate coated with an antibody to pS6RP Ser240/244 (MesoScale Discovery K150DGD-3) or an antibody to pAkt Ser 473 (MesoScale Discovery K151DGD-3). Plates have been blocked before by incubation with 150 μl MesoScale Discovery Blocking Solution-A for 1 hour at room temperature followed by washing with 150 μl 1× Tris wash buffer per well. After the transfer of the cell lysate to the MSD plate, the pS6RP (or pAkt) protein is captured on the coated antibody by incubation at room temperature for 1 hour with gentle shaking. After the capture step the plate is washed three times with 150 μl of 1× Tris wash buffer per well. Then 25 μl detection antibody conjugated with a Sulfo-Tag is added and incubated for 1 hour at room temperature with gentle shaking. Subsequently the antibody solution is removed and the plate is washed 3 times with 150 μl 1× Tris wash buffer per well and 150 μl Read buffer is added. The plates are analysed on a MSD 2400 Plate Reader (MesoScale Discovery). Data analysis is performed using nonlinear regression for a sigmoidal dose-response with a variable slope.

[3] = tested on: IFNγ release in whole blood; test: In vitro human whole blood assay (IFNγ release); type: cell-based; details: αCD3/αCD28 and IL-2 stimulation, 18 hours, read-out: WB inhibition value (pIC50) (converted)
Protocol: This assay measures IFNγ release in whole blood after αCD3/αCD28 and IL-2 treatment. The whole blood contains circulating T lymphocytes; αCD3/αCD28 stimulation mimics antigen receptor signalling, resulting in epigenetic changes to the IFNG gene locus, such that when IL-2 is added, IFNγ is produced.
Human whole blood, with Na-heparin as the anticoagulant, is obtained from Clinical Trials Laboratory Services. Blood is diluted 1.4 times with RPMI 1640 (Lonza, BE12-167F) and 175 μl/well is distributed in a low evaporation 96-well plates (Falcon, BD Labware, 353072). Blood is treated with 10 concentrations of test compounds or DMSO alone for controls (final DMSO concentration 0.2%) and incubated at 37° C. for 1 hour. Blood is then stimulated with 1 μg/ml αCD3 (R&D Systems, MAB100), 1 μg/ml αCD28 (BD Pharmingen, 555725) and IL-2 at 10 ng/ml (Peprotech, 200-02). Blood is then left to incubate at 37° C. for 18 hours. After, plates are spun at 250 g for 5 minutes to pellet blood cells and 25 μl of plasma is transferred to a MesoScale plate coated with an antibody to IFNγ (MesoScale Discovery K151AEC-2) containing 25 μl/well MesoScale Discovery Blocking Solution-2. Plates have been blocked by incubating with 25 μl/well MesoScale Discovery Blocking Solution-2 for 30 minutes at room temperature. After the transfer of sera to the MSD plate, the IFNγ protein is captured on the coated antibody by incubation at room temperature for 2 hour with gentle shaking. After the capture step the plate is washed three times with 150 μl/well of 1×PBS-Tween wash buffer and 25 μl/well detection antibody conjugated with a Sulfo-Tag is added and incubated for 2 hours at room temperature with gentle shaking. Subsequently the antibody solution is removed and the plate is washed 3 times with 150 μl/well 1×PBS-Tween wash buffer and 150 μl/well MesoScale Discovery Read buffer is added. The plates are analysed on a MSD 2400 Plate Reader (MesoScale Discovery). Data analysis is performed using nonlinear regression for a sigmoidal dose-response with a variable slope.

Sequence of DNA-dependent protein kinase (DNA-PK) (P78527 whole entry): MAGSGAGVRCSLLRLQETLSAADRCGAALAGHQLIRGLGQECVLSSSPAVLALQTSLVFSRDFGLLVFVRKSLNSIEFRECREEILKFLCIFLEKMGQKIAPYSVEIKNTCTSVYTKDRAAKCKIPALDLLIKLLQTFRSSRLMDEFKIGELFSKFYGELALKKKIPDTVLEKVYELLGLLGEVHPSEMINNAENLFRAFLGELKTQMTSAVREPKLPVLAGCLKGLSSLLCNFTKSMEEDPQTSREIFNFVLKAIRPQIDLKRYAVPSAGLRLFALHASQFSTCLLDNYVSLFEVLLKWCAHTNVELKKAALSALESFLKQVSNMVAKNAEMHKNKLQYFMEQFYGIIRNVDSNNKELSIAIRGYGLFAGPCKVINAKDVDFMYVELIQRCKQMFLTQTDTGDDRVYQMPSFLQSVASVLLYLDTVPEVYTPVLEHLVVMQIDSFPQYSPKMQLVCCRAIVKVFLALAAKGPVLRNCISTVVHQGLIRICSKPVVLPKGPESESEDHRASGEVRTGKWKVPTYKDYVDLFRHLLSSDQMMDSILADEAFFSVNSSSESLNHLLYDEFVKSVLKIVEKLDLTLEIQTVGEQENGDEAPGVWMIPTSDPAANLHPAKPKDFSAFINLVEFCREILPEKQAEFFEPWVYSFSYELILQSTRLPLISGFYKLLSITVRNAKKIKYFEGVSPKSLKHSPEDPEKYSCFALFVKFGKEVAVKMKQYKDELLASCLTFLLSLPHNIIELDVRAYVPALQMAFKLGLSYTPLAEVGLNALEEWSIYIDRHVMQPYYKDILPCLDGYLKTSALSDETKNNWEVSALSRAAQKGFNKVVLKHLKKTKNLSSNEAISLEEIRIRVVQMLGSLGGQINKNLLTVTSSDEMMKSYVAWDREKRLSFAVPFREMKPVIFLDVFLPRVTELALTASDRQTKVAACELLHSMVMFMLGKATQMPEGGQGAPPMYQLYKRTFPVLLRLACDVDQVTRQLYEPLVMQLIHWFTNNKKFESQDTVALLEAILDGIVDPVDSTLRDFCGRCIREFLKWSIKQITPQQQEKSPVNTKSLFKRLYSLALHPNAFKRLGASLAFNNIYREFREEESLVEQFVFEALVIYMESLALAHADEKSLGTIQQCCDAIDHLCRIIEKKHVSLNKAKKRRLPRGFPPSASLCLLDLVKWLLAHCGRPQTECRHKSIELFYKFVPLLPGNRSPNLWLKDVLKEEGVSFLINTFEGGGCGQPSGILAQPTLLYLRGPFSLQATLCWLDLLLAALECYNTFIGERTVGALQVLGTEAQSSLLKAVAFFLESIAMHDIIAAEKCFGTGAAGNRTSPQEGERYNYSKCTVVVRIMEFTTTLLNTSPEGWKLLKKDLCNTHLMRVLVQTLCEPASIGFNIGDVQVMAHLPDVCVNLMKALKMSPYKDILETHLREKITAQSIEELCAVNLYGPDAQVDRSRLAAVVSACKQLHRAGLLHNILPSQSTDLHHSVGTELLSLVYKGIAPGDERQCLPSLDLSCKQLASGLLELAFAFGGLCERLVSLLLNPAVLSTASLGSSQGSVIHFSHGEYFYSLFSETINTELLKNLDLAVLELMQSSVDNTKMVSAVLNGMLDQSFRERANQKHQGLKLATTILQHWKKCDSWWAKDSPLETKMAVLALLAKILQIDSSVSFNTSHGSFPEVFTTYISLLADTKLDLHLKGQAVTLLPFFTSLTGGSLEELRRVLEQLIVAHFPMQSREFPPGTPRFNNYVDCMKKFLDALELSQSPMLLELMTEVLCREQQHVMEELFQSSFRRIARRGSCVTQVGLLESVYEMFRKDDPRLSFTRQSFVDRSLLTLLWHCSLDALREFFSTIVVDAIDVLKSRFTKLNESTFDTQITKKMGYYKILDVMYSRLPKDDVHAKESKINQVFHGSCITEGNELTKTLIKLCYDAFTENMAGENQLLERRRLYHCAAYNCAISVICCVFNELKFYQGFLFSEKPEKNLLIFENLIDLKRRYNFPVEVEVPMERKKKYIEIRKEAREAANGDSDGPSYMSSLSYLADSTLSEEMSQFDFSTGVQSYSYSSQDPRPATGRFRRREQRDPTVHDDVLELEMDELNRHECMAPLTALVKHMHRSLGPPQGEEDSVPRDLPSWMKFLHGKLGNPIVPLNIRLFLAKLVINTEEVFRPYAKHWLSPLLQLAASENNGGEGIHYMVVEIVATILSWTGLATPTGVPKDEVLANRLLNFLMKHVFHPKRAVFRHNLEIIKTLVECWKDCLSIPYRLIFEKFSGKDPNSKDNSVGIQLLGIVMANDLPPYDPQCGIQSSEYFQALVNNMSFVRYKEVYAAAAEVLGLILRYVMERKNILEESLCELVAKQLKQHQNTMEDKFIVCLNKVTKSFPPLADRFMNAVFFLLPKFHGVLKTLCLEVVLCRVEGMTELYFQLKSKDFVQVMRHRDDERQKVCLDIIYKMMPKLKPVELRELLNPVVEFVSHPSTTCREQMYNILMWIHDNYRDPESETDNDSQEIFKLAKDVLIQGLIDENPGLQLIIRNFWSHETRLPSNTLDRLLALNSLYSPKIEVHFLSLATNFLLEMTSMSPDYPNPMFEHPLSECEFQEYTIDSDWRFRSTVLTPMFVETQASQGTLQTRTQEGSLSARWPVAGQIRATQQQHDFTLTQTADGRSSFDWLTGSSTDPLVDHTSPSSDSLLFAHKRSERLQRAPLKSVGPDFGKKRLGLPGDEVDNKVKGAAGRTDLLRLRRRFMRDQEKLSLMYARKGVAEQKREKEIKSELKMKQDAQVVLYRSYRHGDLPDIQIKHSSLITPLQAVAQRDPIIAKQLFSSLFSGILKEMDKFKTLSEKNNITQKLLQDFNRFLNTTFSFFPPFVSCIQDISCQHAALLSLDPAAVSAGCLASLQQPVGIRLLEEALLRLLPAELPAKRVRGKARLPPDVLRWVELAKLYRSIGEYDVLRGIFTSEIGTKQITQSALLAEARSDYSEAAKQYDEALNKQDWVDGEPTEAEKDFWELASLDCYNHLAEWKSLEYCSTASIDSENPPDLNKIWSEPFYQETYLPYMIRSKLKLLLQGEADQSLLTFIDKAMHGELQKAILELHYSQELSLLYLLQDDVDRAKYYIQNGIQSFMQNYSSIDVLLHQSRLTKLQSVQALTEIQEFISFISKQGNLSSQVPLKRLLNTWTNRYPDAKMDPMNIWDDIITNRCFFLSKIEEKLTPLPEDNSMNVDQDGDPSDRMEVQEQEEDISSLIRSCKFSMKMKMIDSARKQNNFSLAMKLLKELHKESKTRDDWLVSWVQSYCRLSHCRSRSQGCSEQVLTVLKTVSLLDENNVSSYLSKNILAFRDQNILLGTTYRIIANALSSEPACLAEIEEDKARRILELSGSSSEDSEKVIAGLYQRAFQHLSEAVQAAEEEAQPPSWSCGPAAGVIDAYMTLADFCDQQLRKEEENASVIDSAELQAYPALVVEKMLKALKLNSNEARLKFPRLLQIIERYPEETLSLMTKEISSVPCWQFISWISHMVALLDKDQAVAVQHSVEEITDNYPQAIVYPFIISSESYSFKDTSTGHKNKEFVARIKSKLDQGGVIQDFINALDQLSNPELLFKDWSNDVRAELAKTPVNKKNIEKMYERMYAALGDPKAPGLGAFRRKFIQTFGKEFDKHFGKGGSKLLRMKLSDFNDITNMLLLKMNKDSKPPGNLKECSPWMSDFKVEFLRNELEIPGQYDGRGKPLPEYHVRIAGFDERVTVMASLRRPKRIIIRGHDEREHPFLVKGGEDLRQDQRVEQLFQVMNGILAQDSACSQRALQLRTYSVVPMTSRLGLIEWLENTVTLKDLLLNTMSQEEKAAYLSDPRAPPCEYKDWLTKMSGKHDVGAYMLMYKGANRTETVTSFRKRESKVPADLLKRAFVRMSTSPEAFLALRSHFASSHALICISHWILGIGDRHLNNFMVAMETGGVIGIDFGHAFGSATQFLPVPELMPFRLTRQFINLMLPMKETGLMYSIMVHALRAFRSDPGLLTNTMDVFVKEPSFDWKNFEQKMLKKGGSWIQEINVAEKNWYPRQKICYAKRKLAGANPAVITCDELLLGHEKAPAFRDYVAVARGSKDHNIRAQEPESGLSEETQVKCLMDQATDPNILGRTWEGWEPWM

Compound | IC50 [1] | IC50 (mTOR) | IC50 [2] | IC50 [3]
CCNC(=O)Nc1ccc(-c2nc3c(c(N4CCOC[C@@H]4CC)n2)CS(=O)(=O)C3C)cc1 (stereo partly drawn) [Example 41, 1-ethyl-3-(4-(4-((S)-3-ethylmorpholino)-7-methyl-6,6-dioxido-5,7-dihydrothieno[3,4-d]pyrimidin-2-yl)phenyl)urea] | > 10000 nM | < 100 nM | < 100 nM | 251 nM
CCCNC(=O)Nc1ccc(-c2nc3c(c(N4CCOC[C@@H]4C)n2)C(C)S(=O)(=O)C3)cc1 (stereo partly drawn) [Example 45, 1-(4-(5-methyl-4-((S)-3-methylmorpholino)-6,6-dioxido-5,7-dihydrothieno[3,4-d]pyrimidin-2-yl)phenyl)-3-propylurea] | – | < 100 nM | < 100 nM | 398 nM
CC1c2c(nc(-c3ccc(NC(=O)NCC4CC4)cc3)nc2N2CCOC[C@@H]2C)CS1(=O)=O (stereo partly drawn) [Example 46, 1-(cyclopropylmethyl)-3-(4-(5-methyl-4-((S)-3-methylmorpholino)-6,6-dioxido-5,7-dihydrothieno[3,4-d]pyrimidin-2-yl)phenyl)urea] | – | < 100 nM | < 100 nM | 2000 nM
CC1c2c(nc(-c3ccc(NC(=O)NC4CC4)cc3)nc2N2CCOC[C@H]2C)CS1(=O)=O (stereo partly drawn) [Example 48, 1-cyclopropyl-3-(4-(5-methyl-4-((R)-3-methylmorpholino)-6,6-dioxido-5,7-dihydrothieno[3,4-d]pyrimidin-2-yl)phenyl)urea] | – | < 100 nM | < 100 nM | 79.4 nM
CCC1c2c(nc(-c3ccc(NC(=O)NC4CC4)cc3)nc2N2CCOC[C@@H]2C)CS1(=O)=O (stereo partly drawn) [Example 49, 1-cyclopropyl-3-(4-(5-ethyl-4-((S)-3-methylmorpholino)-6,6-dioxido-5,7-dihydrothieno[3,4-d]pyrimidin-2-yl)phenyl)urea] | – | < 100 nM | < 100 nM | 200 nM
CCNC(=O)Nc1ccc(-c2nc3c(c(N4CCOC[C@@H]4C)n2)C(C)S(=O)(=O)C3)cc1F (stereo partly drawn) [Example 50, 1-ethyl-3-(2-fluoro-4-(5-methyl-4-((S)-3-methylmorpholino)-6,6-dioxido-5,7-dihydrothieno[3,4-d]pyrimidin-2-yl)phenyl)urea] | – | < 100 nM | < 100 nM | 1000 nM
C[C@@H]1COCCN1c1nc(-c2ccc(NC(=O)NC3CC3)cc2)nc2c1CS(=O)(=O)C2(C)C [Example 54, (R)-1-cyclopropyl-3-(4-(7,7-dimethyl-4-(3-methylmorpholino)-6,6-dioxido-5,7-dihydrothieno[3,4-d]pyrimidin-2-yl)phenyl)urea] | – | < 100 nM | < 100 nM | 200 nM
CCNC(=O)Nc1ccc(-c2nc(N3CCOC[C@H]3C)c3c(n2)C(C)(C)S(=O)(=O)C3)cc1 [Example 55, (R)-1-(4-(7,7-dimethyl-4-(3-methylmorpholino)-6,6-dioxido-5,7-dihydrothieno[3,4-d]pyrimidin-2-yl)phenyl)-3-ethylurea] | > 10000 nM | – | < 100 nM | 100 nM
CCNC(=O)Nc1ccc(-c2nc(N3CCOC[C@@H]3CC)c3c(n2)C(C)(C)S(=O)(=O)C3)cc1 [Example 56, (S)-1-ethyl-3-(4-(4-(3-ethylmorpholino)-7,7-dimethyl-6,6-dioxido-5,7-dihydrothieno[3,4-d]pyrimidin-2-yl)phenyl)urea] | > 10000 nM | < 100 nM | – | 316 nM
CNC(=O)Nc1ccc(-c2nc(N3CCOC[C@@H]3C)c3c(n2)C(C)(C)S(=O)(=O)C3)cc1 [Example 57, (S)-1-(4-(7,7-dimethyl-4-(3-methylmorpholino)-6,6-dioxido-5,7-dihydrothieno[3,4-d]pyrimidin-2-yl)phenyl)-3-methylurea] | > 10000 nM | < 100 nM | – | 251 nM
C[C@@H]1COCCN1c1nc(-c2ccc(NC(=O)NC3CC3)cc2)nc2c1[C@H](C)S(=O)(=O)C2 [Example 63, 1-cyclopropyl-3-(4-((S)-5-methyl-4-((R)-3-methylmorpholino)-6,6-dioxido-5,7-dihydrothieno[3,4-d]pyrimidin-2-yl)phenyl)urea] | – | 100 to 1000 nM | < 100 nM | 251 nM
CC1c2c(N3CCOC[C@@H]3C)nc(-c3ccc(NC(=O)NCCF)cc3)nc2C(C)(C)S1(=O)=O (stereo partly drawn) [Example 75, 1-(2-fluoroethyl)-3-(4-(5,7,7-trimethyl-4-((S)-3-methylmorpholino)-6,6-dioxido-5,7-dihydrothieno[3,4-d]pyrimidin-2-yl)phenyl)urea] | – | < 100 nM | < 100 nM | 126 nM
CCNC(=O)Nc1ccc(-c2nc(N3CCOCC3)c3c(n2)C(C)(C)S(=O)(=O)C3)cc1 [Example 76, 1-(4-(7,7-dimethyl-4-morpholino-6,6-dioxido-5,7-dihydrothieno[3,4-d]pyrimidin-2-yl)phenyl)-3-ethylurea] | – | < 100 nM | < 100 nM | 631 nM
CNC(=O)Nc1ccc(-c2nc(N3CCOC[C@@H]3C)c3c(n2)C(C)(C)S(=O)(=O)C3C)cc1 (stereo partly drawn) [Example 77, 1-methyl-3-(4-(5,7,7-trimethyl-4-((S)-3-methylmorpholino)-6,6-dioxido-5,7-dihydrothieno[3,4-d]pyrimidin-2-yl)phenyl)urea] | – | < 100 nM | < 100 nM | 200 nM
CNC(=O)Nc1ccc(-c2nc(N3CCOC[C@@H]3C)c3c(n2)C(C)(C)S(=O)(=O)C3C)c(F)c1 (stereo partly drawn) [Example 78, 1-(3-fluoro-4-(5,7,7-trimethyl-4-((S)-3-methylmorpholino)-6,6-dioxido-5,7-dihydrothieno[3,4-d]pyrimidin-2-yl)phenyl)-3-methylurea] | – | < 100 nM | < 100 nM | 501 nM
CC[C@H]1COCCN1c1nc(-c2ccc(NC(=O)NC)cc2F)nc2c1C(C)S(=O)(=O)C2(C)C (stereo partly drawn) [Example 79, 1-(4-(4-((S)-3-ethylmorpholino)-5,7,7-trimethyl-6,6-dioxido-5,7-dihydrothieno[3,4-d]pyrimidin-2-yl)-3-fluorophenyl)-3-methylurea] | – | < 100 nM | < 100 nM | 631 nM
CC[C@H]1COCCN1c1nc(-c2ccc(NC(=O)NC)cc2)nc2c1C(C)S(=O)(=O)C2(C)C (stereo partly drawn) [Example 80, 1-(4-(4-((S)-3-ethylmorpholino)-5,7,7-trimethyl-6,6-dioxido-5,7-dihydrothieno[3,4-d]pyrimidin-2-yl)phenyl)-3-methylurea] | – | < 100 nM | < 100 nM | 100 nM
